In brackets after ≈: the same amount, converted by molar mass. Where two headings read alike, the source gives them in different places.
How the values were obtained:
[1] = system: HHV-6 (Z-29 strain, variant B); assay: Anti-HHV-6 activity in MOLT-3 cells (CPE and viral DNA slot blot); type: cell-based, human herpes virus type 6 (HHV-6); conditions: Homo sapiens
Experimental: (§1) Two human immature T-lymphoblastoid cell lines were used: HSB-2, obtained from American Type Culture Collection (No. CCL 120.1); and MOLT-3, purchased from ABI Technologies (Columbia, Md., USA). The cells were propagated in RPMI 1640 medium supplemented with 10% fetal calf serum, 2 mM L-glutamine, 0.075% sodium bicarbonate and gentamycin. The cultures were incubated at 37° C. in a humidified and CO2 controlled incubator.
The GS strain of HHV-6 variant A was kindly provided by Dr. R. Gallo, while the Z-29 strain of HHV-6 variant B was obtained from ABI Technologies (Columbia, Md., USA). For preparation of virus stocks, suspensions of HSB-2 cells infected with strain GS, or MOLT-3 cells infected with strain Z-29, were collected at 10–12 days post infection, when the cytopathic effect (CPE) was maximal and cells were >90% virus positive (as determined by immunofluorescence detection of HHV-6 antigens). Since the titer of virus released in culture supernatant was insufficient, virus stocks were used as whole cell suspensions, which were relatively stable when kept in aliquots at −80° C.
Stock solutions of the test compounds or of standards were prepared in dimethylsulfoxide or phosphate buffered saline (PBS). Working dilutions for the antiviral assays were prepared by appropriate dilution of the stock solutions in cell culture medium. The antiherpetic drug Foscarnet (PFA, Foscavir® from Astra, Södertälje, Sweden) was used as standard.
On day 0, the GS and Z-29 strains of HHV-6 were inoculated onto HSB-2 cells and MOLT-3 cells, respectively, at a multiplicity of infection of 0.001 CCID50 (50% cell culture infective doses) per cell, and a cell suspension having a cell density of approximately 5×10^6 cells per ml of culture medium. After two hours of virus adsorption at 37° C., the unadsorbed virus was removed by centrifugation and the infected cells were resuspended and transferred to 48-well microtrays containing the test compounds or control in two- to five-fold dilutions. The final cell density of the suspended cells was approximately 0.8×10^6 cells per ml of culture medium.
(§2) The cells were incubated at 37° C. and subcultivated on days four and seven by two-fold dilution in medium containing fresh test compound or control. On days 10–14, the cells were examined microscopically to score the viral cytopathic effect (CPE) visible by the appearance of large ballooning cells and drug toxicity. Then total DNA was extracted from the infected cells with the QIAamp Blood Kit (Qiagen, Germany), using the manufacturer's instructions, and the DNA extracts were frozen at −20° C. until further analysis.
A digoxigenin labeled probe specific for strain GS or Z-29, was prepared by PCR reaction in the presence of digoxigenin-dUTP, on a 1-μl aliquot of a DNA extract prepared from infected cells showing manifest CPE. The 5′-3′ primer sequence was GCTAGAACG TATTTGCTGCAGAACG (Seq. Id. No. 1) and […] (Seq. Id. No. 2), delimiting a 259 bp sequence within the U67 gene. The amplified product was separated on agarose gel and extracted from the gel fragment with the QIAquick gel extraction kit (Qiagen, Germany) after which the purified probe was frozen at −20° C.
For quantitation of viral DNA in the infected and drug-treated cell cultures, appropriate aliquots of the total DNA extracts (containing 5 μg of total DNA, as determined spectrophotometrically at 260 nm) were boiled during 10 min, and blotted on a nylon membrane (Hybond-N from Amersham) using a Hoefer slot blot apparatus from Pharmacia (Sweden). After UV cross-linking, the membrane was prehybridized during 30 min at 42° C. with DIG (digoxigenin) easy Hyb solution® (Boehringer Mannheim, Germany). Then, the GS- or Z-29 specific digoxigenin labeled probe was added and allowed to hybridize by incubation overnight at 42° C. […]

HIV-1 (IIIB) = assay: microbe, parasite or virus in culture; type: cell-based; conditions: Human immunodeficiency virus 1, IIIB, CCRF-CEM; CEM cells, syncytium formation, day four post infection; read-out: EC50 (ug/ml) HIV-1
Method in brief: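 Human T-lymphoblast CEM cells at roughly 300,000 cells per ml were infected with about 100 CCID50 of HIV-1 (IIIB). Then 100 μl of the infected suspension went into 200 μl microtiter wells holding 100 μl of 5-fold serial compound dilutions. Inhibition of syncytium formation was scored microscopically on day four post infection, and protection against virus-induced cytopathicity was recorded.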

HIV-2 (ROD) = assay: Inhibition of HIV-2 syncytium formation in CEM cells; type: cell-based; conditions: for EC50: Human immunodeficiency virus 2, CCRF-CEM, CEM cells, syncytium formation, day four post infection, read-out: EC50 (ug/ml) HIV-2
Method in brief: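 Human T-lymphoblast CEM cells, suspended at roughly 300,000 cells per ml of culture medium, were infected with about 100 CCID50 of HIV-2 (ROD). Aliquots of 100 μl of infected cells were placed in 200 μl microtiter wells holding 100 μl of serial 5-fold compound dilutions, and syncytium formation was scored microscopically four days after infection.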

MOLT-3 cells = assay: Toxicity in MOLT-3 cells, changes in cell morphology by microscopic examination; type: cell-based, human
Experimental: as §1, §2
The antiviral IC50 was calculated by extrapolation and defined as the compound concentration that produced 50% inhibition of virus replication as determined by microscopic examination or quantitation of viral DNA. Toxicity of the compounds was expressed as minimum cytotoxic concentration (MCC), or the lowest compound concentration that caused a microscopically visible alteration in cellular morphology.

Davis strain CMV = assay: Reduction of CMV-induced cytopathicity in HEL cells; type: cell-based, human cytomegalovirus (HCMV); conditions: HEL cells; for EC50: Human betaherpesvirus 5, 168 h, virus-induced cytopathicity after seven days, read-out: Antiviral EC50 (ug/ml) Davis strain CMV
Method in brief: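 Confluent HEL cells were infected with 100 PFU/well CMV for 1–2 h, then washed and kept in MEM with 2% FCS and test compound. EC50 is the concentration cutting virus-induced cytopathicity by 50% versus untreated control at day 7. Where cytotoxicity interfered, percent protection at the stated concentration is given.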

[2] = MOLT-3, read-out: EC50 Based on CPE, MOLT-3 cells, Exp. 1
[3] = MOLT-3, read-out: EC50 Based on CPE, MOLT-3 cells, Exp. 2
[4] = MOLT-3, read-out: EC50 Based on CPE, MOLT-3 cells, Exp. 3
[5] = MOLT-3, read-out: EC50 Based on Viral DMA Detection, MOLT-3 cells, Exp. 1
[6] = MOLT-3, read-out: EC50 Based on Viral DMA Detection, MOLT-3 cells, Exp. 2
[7] = MOLT-3, read-out: EC50 Based on Viral DMA Detection, MOLT-3 cells, Exp. 3

Row | melting point [°C] | SMILES | EC50 [1, 2] [µg/mL] | EC50 [1, 3] [µg/mL] | EC50 [1, 4] [µg/mL] | EC50 [1, 5] [µg/mL] | EC50 [1, 6] [µg/mL] | EC50 [1, 7] [µg/mL] | EC50 (HIV-1 (IIIB)) [µg/mL] | EC50 (HIV-2 (ROD)) [µg/mL] | MIC (concentration causing minimal changes in cell morphology) (MOLT-3 cells; Exp. 1) [μg/ml] | MIC (concentration causing minimal changes in cell morphology) (MOLT-3 cells; Exp. 2) [μg/ml] | MIC (concentration causing minimal changes in cell morphology) (MOLT-3 cells; Exp. 3) | EC50 (Davis strain CMV) [µg/mL] | Antiviral % Inhibition Davis strain CMV (Davis strain CMV; estimate of percent protection at the concentration in the previous column) [%] | HIV-2 % Protection (HIV-2 (ROD); protection of CEM cells against virus-induced cytopathicity at the concentration in the previous column) [%]
1 |  | O=S(=O)(Cc1ccccc1)c1cccc[n+]1[O-] [Compound 6, 2-(Benzylsulfonyl)-pyridine-N-oxide] | 17.1 (≈ 68.6 µM) | 8.7 (≈ 34.9 µM) | 12.9 (≈ 51.7 µM) | 28.1 (≈ 113 µM) | 17.3 (≈ 69.4 µM) | 22.7 (≈ 91.1 µM) | 4.4 (≈ 17.7 µM) | 4.4 (≈ 17.7 µM) | 100 | 100 | 100 μg/ml | 19.5 (≈ 78.2 µM) |  | 
2 |  | Cc1ccc(C)c(CS(=O)(=O)c2cccc[n+]2[O-])c1 [Compound 10, 2-(2,5-Dimethylphenylmethylsulfonyl)pyridine N-oxide] | 12.6 (≈ 45.4 µM) | 11.1 (≈ 40 µM) | 11.8 (≈ 42.5 µM) | 21.8 (≈ 78.6 µM) | 9.4 (≈ 33.9 µM) | 15.6 (≈ 56.2 µM) | 1.8 (≈ 6.49 µM) | 5.8 (≈ 20.9 µM) | 50 | 100 | ≧50 μg/ml | 10 (≈ 36.1 µM) |  | 
3 |  | [O-][n+]1ccccc1[S+]([O-])Cc1ccccc1 (stereo not shown) [Compound 5, 2-(Benzylsulfinyl)-pyridine-N-oxide] | > 100 | > 200 | > 100 | > 100 |  | > 100 | 3.4 (≈ 14.6 µM) | 2.1 (≈ 9 µM) | 100 | 100 | 100 μg/ml | > 50 | 0.0 | 
4 | 171 to 173 | Cc1ccc(C)c(CS(=O)(=O)c2c(C)ccc[n+]2[O-])c1 [Compound 165, 2-[((2,5-dimethylphenyl)methyl)sulfonyl]-3-methylpyridine-1-oxide] |  |  |  |  |  |  | 0.14 (≈ 0.48 µM) | > 4 |  |  |  |  |  | 0.0
5 |  | O=C(O)P(=O)(O)O [PFA, Foscarnet, reference compound] | 8.9 (≈ 70.6 µM) | 4 (≈ 31.7 µM) | 6.5 (≈ 51.6 µM) | 9.4 (≈ 74.6 µM) | 8.8 (≈ 69.8 µM) | 9.1 (≈ 72.2 µM) |  |  | >100 | >100 | >100 μg/ml |  |  | 
